Measurements taken from patent US9458118B2, “Sodium channel modulators for the treatment of pain and diabetes” (CHROMOCELL CORPORATION, priority 2013, dated 2016).

Test system: rats
Assay: Acetic acid writhing model in rats
Assay type: in vivo, rat
Settings: doses of 10 to 30 mg/kg, intraperitoneal route
Protocol: The Acetic Acid Writhing Model is associated with visceral pain (abdominal pain, such as stomach pain, and pain caused by, for example, bile duct congestion and kidney stones). A writhing test assesses acute peritoneovisceral pain.
After acclimation of 2-3 days, a test compound, positive control or vehicle control was administered by intraperitoneal injection (i.p.) or by oral gavage 15-30 minutes prior to administration of acetic acid. The time of administration of test compound was recorded. For mice: Method A: 0.6% Acetic acid solution in saline was injected i.p. in a volume of 10 ml/kg; Method B: 1.2% Acetic acid solution in saline was injected i.p. in a volume of 5 ml/kg. For rats: 4% acetic acid in saline was injected i.p in a volume of 2 ml/kg at T=0 minutes. Each animal was placed in a clear plastic cage. At T=5 minutes, the number of writhing movements was counted over a 45 minute period. Alternatively, the writhing movements were counted over a 5-minute period and repeated every 5 minutes, starting at T=5 minutes over a 45-minute period.
For each compound tested, the individual score was obtained by calculating the accumulated writhing movements for the time period studied. […]

## O=C(O)CNC(=O)c1cc(-c2cc(Cl)ccc2Oc2cc(F)c(S(=O)(=O)Nc3ncns3)cc2Cl)ccn1 [Compound 2, 2-(4-(2-(4-(N-(1,2,4-thiadiazol-5-yl)sulfamoyl)-2-chloro-5-fluorophenoxy)-5-chlorophenyl)picolinamido)acetic acid]
  reduction in pain (writhing) relative to vehicle control: 48-58%
